The target in series [1] is T1, CYP1A2 (Homo sapiens, UniProt P05177).
T1 sequence (P05177 1-516): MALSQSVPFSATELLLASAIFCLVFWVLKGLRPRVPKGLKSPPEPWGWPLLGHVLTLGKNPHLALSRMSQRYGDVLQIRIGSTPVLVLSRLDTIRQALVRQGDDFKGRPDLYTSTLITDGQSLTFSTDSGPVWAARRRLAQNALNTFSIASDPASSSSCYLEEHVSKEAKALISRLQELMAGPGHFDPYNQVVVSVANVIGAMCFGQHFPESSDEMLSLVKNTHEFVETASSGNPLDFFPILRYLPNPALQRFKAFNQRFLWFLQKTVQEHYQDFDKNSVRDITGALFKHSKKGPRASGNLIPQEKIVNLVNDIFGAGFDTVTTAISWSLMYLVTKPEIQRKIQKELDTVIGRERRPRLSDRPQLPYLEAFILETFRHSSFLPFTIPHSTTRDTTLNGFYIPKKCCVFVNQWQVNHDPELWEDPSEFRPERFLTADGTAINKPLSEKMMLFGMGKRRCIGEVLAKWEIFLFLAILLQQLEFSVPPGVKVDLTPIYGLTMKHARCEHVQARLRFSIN
The series is described as follows: biochemical. Type of series: in vitro ADME.

In a further series the target is P-gp (Homo sapiens, UniProt P08183). The series is described as follows: P-gp inhibition in Caco-2 cells. Type of series: in vitro ADME. To be noted: up to 10 μM.
For series [2], the target named is T2, OATP1B1 (Homo sapiens, UniProt Q9Y6L6).
T2 sequence (Q9Y6L6 1-691): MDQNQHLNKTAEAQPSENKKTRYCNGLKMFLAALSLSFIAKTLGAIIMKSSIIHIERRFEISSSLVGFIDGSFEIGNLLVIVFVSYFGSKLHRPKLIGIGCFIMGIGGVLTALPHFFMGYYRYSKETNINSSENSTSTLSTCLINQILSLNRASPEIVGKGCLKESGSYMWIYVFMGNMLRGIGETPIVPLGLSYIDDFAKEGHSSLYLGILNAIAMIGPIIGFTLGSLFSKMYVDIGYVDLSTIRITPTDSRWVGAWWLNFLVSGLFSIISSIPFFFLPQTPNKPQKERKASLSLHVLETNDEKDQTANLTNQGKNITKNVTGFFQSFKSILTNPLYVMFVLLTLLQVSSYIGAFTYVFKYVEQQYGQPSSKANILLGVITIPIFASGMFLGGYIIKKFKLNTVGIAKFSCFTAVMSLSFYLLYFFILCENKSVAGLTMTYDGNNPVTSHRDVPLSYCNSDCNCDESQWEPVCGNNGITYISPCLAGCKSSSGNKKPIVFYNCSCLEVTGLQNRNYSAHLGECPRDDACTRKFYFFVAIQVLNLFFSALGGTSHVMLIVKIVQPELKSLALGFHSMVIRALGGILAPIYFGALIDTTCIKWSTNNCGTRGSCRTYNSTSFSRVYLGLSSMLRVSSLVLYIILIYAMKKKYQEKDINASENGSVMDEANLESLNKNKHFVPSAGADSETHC
The series is described as follows: SLC transportation assay in HEK293 cells. Type of series: in vitro ADME. To be noted: uptake ratios <2 at 0.1, 0.3, 5 µM.

Series [3] concerns the target T2, OATP1B1. The series is described as follows: SLC inhibition assay in HEK293 cells. In kind it is in vitro ADME. As to conditions: 0.05–5 µM.
The target in another series is T3, OAT3 (Homo sapiens, UniProt Q8TCC7).
T3 sequence (Q8TCC7 1-542): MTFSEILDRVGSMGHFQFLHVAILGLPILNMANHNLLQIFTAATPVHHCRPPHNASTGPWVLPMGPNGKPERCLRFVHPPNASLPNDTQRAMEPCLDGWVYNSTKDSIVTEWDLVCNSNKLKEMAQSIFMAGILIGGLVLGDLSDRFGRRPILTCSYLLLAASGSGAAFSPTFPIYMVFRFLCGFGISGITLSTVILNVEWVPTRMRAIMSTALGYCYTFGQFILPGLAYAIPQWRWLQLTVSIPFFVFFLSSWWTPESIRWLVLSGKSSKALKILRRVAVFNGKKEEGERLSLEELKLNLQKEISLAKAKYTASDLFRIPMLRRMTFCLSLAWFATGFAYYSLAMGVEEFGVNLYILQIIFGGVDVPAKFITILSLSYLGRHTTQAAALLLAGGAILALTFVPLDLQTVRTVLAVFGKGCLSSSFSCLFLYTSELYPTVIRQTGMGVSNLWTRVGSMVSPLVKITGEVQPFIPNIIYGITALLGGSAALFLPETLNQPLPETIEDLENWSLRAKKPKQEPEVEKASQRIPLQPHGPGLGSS
The series is described as follows: SLC inhibition assay in HEK293 cells. Type of series: in vitro ADME.

The next series relates to CYP3A4. As to conditions: coadministration of zanubrutinib; cited from earlier work.
The next series deals with CYP2C19. As to conditions: coadministration of zanubrutinib; cited from earlier work.
A further series concerns BCRP. As to conditions: coadministration of zanubrutinib; cited from earlier work.
For series [4], the system named is CYP1A2. The experiment in a line: in vitro. To be noted: human.
The next series deals with T4, CYP2C8 (Homo sapiens, UniProt P10632).
T4 sequence (P10632 1-490): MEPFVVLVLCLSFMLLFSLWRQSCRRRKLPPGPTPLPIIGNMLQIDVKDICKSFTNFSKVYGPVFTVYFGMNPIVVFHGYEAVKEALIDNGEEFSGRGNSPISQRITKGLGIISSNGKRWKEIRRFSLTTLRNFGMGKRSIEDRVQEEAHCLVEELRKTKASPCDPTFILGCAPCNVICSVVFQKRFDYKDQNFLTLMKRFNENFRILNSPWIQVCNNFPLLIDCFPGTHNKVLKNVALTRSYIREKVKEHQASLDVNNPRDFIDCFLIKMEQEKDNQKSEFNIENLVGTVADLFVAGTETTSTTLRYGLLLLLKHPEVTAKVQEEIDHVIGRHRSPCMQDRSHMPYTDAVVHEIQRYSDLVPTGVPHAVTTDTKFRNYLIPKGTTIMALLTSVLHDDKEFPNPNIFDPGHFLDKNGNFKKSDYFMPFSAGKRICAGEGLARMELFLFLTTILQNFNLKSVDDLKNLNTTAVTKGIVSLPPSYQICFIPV
The experiment in a line: Time-dependent CYP inhibition in HLMs. As to conditions: 10 µM zanubrutinib, 30 min pre-incubation with HLMs and NADPH.

The target of the next series is CYP2C9 (Homo sapiens, UniProt P11712). The series is described as follows: Time-dependent CYP inhibition in HLMs. To be noted: 10 µM zanubrutinib, 30 min pre-incubation with HLMs and NADPH.
The next series addresses CYP2D6 (Homo sapiens, UniProt P10635). The experiment in a line: Time-dependent CYP inhibition in HLMs. To be noted: 10 µM zanubrutinib, 30 min pre-incubation with HLMs and NADPH.
The mark [5] stands for this setting: human, HEK293 cells overexpressing OAT3 (and MOCK cells), probe estrone sulfate.

Sequence of CYP2C9 (P11712 whole entry): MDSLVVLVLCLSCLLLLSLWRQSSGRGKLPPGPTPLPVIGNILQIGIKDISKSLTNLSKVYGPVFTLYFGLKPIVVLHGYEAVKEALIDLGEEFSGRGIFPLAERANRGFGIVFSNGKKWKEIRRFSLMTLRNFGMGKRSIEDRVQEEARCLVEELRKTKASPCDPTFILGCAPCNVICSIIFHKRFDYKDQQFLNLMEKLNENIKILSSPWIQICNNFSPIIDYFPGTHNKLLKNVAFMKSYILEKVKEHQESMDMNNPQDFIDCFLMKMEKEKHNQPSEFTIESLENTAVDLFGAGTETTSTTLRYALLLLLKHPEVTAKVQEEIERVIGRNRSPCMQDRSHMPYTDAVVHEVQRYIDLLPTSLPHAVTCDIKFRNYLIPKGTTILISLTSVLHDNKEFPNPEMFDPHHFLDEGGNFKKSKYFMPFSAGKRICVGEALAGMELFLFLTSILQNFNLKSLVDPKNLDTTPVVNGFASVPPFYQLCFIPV
Sequence of CYP2D6 (P10635 whole entry): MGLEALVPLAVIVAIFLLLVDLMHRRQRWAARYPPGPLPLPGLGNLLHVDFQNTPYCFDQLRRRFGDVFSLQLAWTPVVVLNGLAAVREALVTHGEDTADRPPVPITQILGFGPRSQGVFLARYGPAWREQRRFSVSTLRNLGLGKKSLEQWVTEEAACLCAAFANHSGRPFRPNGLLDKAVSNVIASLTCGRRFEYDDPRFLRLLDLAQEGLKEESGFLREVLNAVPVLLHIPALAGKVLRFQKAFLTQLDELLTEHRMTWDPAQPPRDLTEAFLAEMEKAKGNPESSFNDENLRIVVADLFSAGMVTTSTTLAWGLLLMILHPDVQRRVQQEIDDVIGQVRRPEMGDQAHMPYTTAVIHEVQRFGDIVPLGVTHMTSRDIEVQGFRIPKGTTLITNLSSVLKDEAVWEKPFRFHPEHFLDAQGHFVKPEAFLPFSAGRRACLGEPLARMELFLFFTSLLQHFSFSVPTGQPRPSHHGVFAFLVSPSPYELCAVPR
Sequence of P-gp (P08183 whole entry): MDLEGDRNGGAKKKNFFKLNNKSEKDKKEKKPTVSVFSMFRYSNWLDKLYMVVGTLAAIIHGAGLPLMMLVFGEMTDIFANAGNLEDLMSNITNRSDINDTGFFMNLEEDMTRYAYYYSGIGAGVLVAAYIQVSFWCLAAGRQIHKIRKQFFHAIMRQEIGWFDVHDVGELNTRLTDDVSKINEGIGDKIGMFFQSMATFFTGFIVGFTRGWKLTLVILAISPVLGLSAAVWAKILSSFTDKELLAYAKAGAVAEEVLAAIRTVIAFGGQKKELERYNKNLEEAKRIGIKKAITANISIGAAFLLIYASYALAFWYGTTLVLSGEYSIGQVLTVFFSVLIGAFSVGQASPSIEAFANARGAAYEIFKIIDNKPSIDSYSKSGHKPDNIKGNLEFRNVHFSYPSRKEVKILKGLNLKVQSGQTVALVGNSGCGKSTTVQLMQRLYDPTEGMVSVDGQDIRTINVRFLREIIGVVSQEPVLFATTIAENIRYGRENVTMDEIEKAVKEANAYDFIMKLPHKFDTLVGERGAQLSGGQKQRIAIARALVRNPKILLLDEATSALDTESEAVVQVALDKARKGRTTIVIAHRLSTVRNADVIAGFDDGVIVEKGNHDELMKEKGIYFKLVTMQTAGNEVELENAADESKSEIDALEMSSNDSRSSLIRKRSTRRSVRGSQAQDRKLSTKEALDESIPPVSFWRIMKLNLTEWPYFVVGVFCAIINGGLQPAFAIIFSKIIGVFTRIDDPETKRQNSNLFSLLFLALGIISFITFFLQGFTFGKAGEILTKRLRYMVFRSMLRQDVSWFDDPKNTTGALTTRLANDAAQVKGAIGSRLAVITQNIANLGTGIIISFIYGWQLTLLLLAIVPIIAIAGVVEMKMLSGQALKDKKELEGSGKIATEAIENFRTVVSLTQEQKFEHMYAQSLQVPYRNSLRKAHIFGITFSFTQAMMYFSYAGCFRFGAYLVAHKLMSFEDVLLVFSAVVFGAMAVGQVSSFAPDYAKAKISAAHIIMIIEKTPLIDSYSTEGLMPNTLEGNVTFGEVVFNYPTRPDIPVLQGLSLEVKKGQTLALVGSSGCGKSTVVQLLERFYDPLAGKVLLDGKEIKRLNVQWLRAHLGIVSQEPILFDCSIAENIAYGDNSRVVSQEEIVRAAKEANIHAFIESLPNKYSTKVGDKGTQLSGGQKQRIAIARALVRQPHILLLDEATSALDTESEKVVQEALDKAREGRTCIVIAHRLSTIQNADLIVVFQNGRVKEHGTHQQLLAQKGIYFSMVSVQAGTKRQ

The compound `C=CC(=O)N1CCC([C@@H]2CCNc3c(C(N)=O)c(-c4ccc(Oc5ccccc5)cc4)nn32)CC1` [zanubrutinib] registered an IC50 on CYP1A2 [1] of 121 µM. Moreover, the inhibitory constant (Ki) on CYP1A2 [1] (Ki, phenacetin, Ki = IC50/2) turned out to be 60.5 µM; on CYP1A2 [1] (Kiu, phenacetin, unbound Ki), 47.8 µM. Besides, the R1 at CYP1A2 [1] (phenacetin, DDI basic model, hepatic) is 1.00. On CYP1A2 [1] (phenacetin, static model term, liver inhibition), the Ah turned out to be 1.00. For the same compound, the P-gp inhibitor status result on P-gp is listed as “not a significant inhibitor of P‐gp”. Also, the Substrate status entry at OATP1B1 [2] is “unlikely to be a substrate”. For the same compound, the “Inhibition of uptake activity” value at OATP1B1 [3] and on OAT3 (0.05–5 µM) was “not inhibited” throughout. Moreover, the activity at 0.05 µM at OAT3 (setting [5]) worked out at 90 ± 4.2%. Moreover, the activity at 0.2 µM at OAT3 (setting [5]) was found to be 97.8 ± 7.7%. Also, on OAT3 (setting [5]), the activity at 1 µM stood at 113 ± 27%. In addition, at OAT3 (setting [5]), the activity at 5 µM was 199 ± 34%. Besides, in the series on CYP3A4, the “Reduction of AUC of CYP3A probe midazolam” value was 47.5%. For the same compound, the “Reduction of AUC of CYP2C19 probe omeprazole” value in the series on CYP2C19 is listed as 36.5%. For the same compound, in the series on BCRP, the “Effect on exposure of BCRP probe rosuvastatin” value was “did not significantly affect the exposure”. The same compound yielded an EC50 at 2 days in the series on CYP1A2 [4] of 290 nM. Moreover, the results for the “Percent loss of enzymatic activity” value at CYP2C8, at CYP2C9 and at CYP2D6 were 21.9%, 5.86% and −14.6%, respectively.

The record behind these values is article PMC8524670 (Pharmacology Research & Perspectives, 2021).
